Test results: ChEMBL document CHEMBL3352775, “Identification of substituted 3-hydroxy-2-mercaptocyclohex-2-enones as potent inhibitors of human lactate dehydrogenase” (Bioorg Med Chem Lett, 2014)

Legend:
[1] = target: T1, L-lactate dehydrogenase A chain (Homo sapiens, UniProt P00338); assay: Inhibition of human recombinant carboxy-terminal His-tagged LDHA by UV endpoint assay
[2] = target: L-lactate dehydrogenase B chain (Homo sapiens, UniProt P07195)
Description: Inhibition of human recombinant carboxy-terminal His-tagged LDHB by UV endpoint assay

[3] = target: T1, L-lactate dehydrogenase A chain; assay: Inhibition of human recombinant carboxy-terminal His-tagged LDHA by SPR assay

Sequence of L-lactate dehydrogenase B chain (P07195 whole entry): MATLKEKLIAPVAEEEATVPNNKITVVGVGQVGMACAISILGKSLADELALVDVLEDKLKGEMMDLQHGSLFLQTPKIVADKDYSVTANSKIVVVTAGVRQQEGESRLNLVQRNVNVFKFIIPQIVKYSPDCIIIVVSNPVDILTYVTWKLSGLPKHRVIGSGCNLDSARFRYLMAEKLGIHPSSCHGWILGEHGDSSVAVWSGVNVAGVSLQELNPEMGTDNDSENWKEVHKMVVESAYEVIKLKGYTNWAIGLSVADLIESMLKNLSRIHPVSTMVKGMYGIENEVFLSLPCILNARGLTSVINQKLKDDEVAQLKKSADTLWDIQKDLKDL

| SMILES | IC50 [1] [µM] | IC50 [2] [µM] | Kd [3] [µM] |
| --- | --- | --- | --- |
| O=C1CC(c2ccccc2)CC(O)=C1Sc1cccc(Br)c1 (stereo not drawn) | > 100 | – | – |
| O=C1CC(c2ccccc2)CC(O)=C1Sc1nc(O)cc(C(F)(F)F)n1 (stereo not drawn) | > 100 | – | – |
| CSc1ccc(SC2=C(O)CC(c3ccccc3)CC2=O)cc1 (stereo not drawn) | > 100 | – | – |
| O=C1CC(c2c(Br)cccc2Br)CC(O)=C1Sc1ccccc1Cl (stereo not drawn) | 0.27 | 15 | – |
| Cc1cc(C)cc(SC2=C(O)CC(c3ccccc3)CC2=O)c1 (stereo not drawn) | > 100 | – | – |
| O=C1CC(c2ccccc2)CC(O)=C1SCc1cccc(C(F)(F)F)c1 (stereo not drawn) | > 100 | – | – |
| NC(=O)c1ccccc1SC1=C(O)CC(c2ccccc2)CC1=O (stereo not drawn) | > 100 | – | – |
| O=C1CC(c2ccccc2)CC(O)=C1Sc1ccc(Cl)cc1 (stereo not drawn) | > 100 | – | – |
| Cc1ccc(SC2=C(O)CC(c3ccccc3)CC2=O)cc1C (stereo not drawn) | > 100 | – | – |
| O=C1CC(c2ccccc2)CC(O)=C1Sc1ccccc1CO (stereo not drawn) | 36 | – | – |
| O=C1CC(c2ccccc2)CC(O)=C1Sc1cc(Cl)cc(Cl)c1 (stereo not drawn) | > 100 | – | – |
| O=C1CC(c2ccccc2)CC(O)=C1Sc1nccs1 (stereo not drawn) | > 100 | – | – |
| COc1ccc(SC2=C(O)CC(c3ccccc3)CC2=O)cc1 (stereo not drawn) | > 100 | – | – |
| NC(=O)c1cccc(SC2=C(O)CC(c3ccccc3)CC2=O)c1 (stereo not drawn) | > 100 | – | – |
| N#Cc1ccccc1SC1=C(O)CC(c2cccc(Cl)c2)CC1=O (stereo not drawn) | 6.8 | > 10 | – |
| O=C1CC(c2ccccc2)CC(O)=C1Sc1ccccc1C(F)(F)F (stereo not drawn) | > 66 | – | – |
| Cc1ccc(C)c(SC2=C(O)CC(c3ccccc3)CC2=O)c1 (stereo not drawn) | > 64 | – | – |
| O=C1CC(c2ccc(Cl)cc2)CC(O)=C1Sc1ccccc1Cl (stereo not drawn) | 18 | – | 27 |
| Nc1nnc(SC2=C(O)CC(c3ccccc3)CC2=O)s1 (stereo not drawn) | > 100 | – | – |
| O=C1CC(c2ccccc2Cl)CC(O)=C1Sc1ccccc1Cl (stereo not drawn) | 5.6 | – | 8.2 |
| O=C1CC(c2ccccc2)CC(O)=C1Sc1ccccn1 (stereo not drawn) | > 100 | – | – |
| O=C1CC(c2ccccc2)CC(O)=C1Sc1c(Cl)cccc1Cl (stereo not drawn) | > 100 | – | – |
| Cc1cnc(SC2=C(O)CC(c3ccccc3)CC2=O)nc1O (stereo not drawn) | > 100 | – | – |
| CCc1ccc(SC2=C(O)CC(c3ccccc3)CC2=O)cc1 (stereo not drawn) | > 100 | – | – |
| COC(=O)c1ccccc1SC1=C(O)CC(c2ccccc2)CC1=O (stereo not drawn) | > 100 | – | – |
| O=C1CC(c2ccccc2)CC(O)=C1Sc1cccc2ccccc12 (stereo not drawn) | > 100 | – | – |

| SMILES | IC50 [1] [µM] | IC50 [2] [µM] | Kd [3] [µM] |
| --- | --- | --- | --- |
| O=C1CC(c2ccccc2)CC(O)=C1SC1CCCCC1 (stereo not drawn) | > 100 | – | – |
| Cc1ccc2nc(SC3=C(O)CC(c4ccccc4)CC3=O)[nH]c2c1 (stereo not drawn) | > 100 | – | – |
| O=C1CC(c2ccccc2)CC(O)=C1Sc1ccc(Cl)c(Cl)c1 (stereo not drawn) | > 100 | – | – |
| O=C1CC(c2ccccc2)CC(O)=C1Sc1cccc(Cl)c1 (stereo not drawn) | > 100 | – | – |
| O=C1CC(c2ccccc2)CC(O)=C1Sc1ccc(Br)cc1 (stereo not drawn) | > 100 | – | – |
| Cc1csc(SC2=C(O)CC(c3ccccc3)CC2=O)n1 (stereo not drawn) | > 100 | – | – |
| Nc1cccc(SC2=C(O)CC(c3ccccc3)CC2=O)c1 (stereo not drawn) | > 100 | – | – |
| O=C1CC(c2ccccc2)CC(O)=C1Sc1cccs1 (stereo not drawn) | > 100 | – | – |
| Cc1cccc(SC2=C(O)CC(c3ccccc3)CC2=O)c1 (stereo not drawn) | > 100 | – | – |
| O=C1CC(c2ccccc2)CC(O)=C1Sc1cccc(C(F)(F)F)c1 (stereo not drawn) | > 100 | – | – |
| CCc1ccccc1SC1=C(O)CC(c2ccccc2)CC1=O (stereo not drawn) | > 100 | – | – |
| CC(C)C(C)SC1=C(O)CC(c2ccccc2)CC1=O (stereo not drawn) | > 100 | – | – |
| O=C1CC(c2ccccc2)CC(O)=C1Sc1ccc(C(F)(F)F)cc1 (stereo not drawn) | > 100 | – | – |
| Cc1ccc(SC2=C(O)CC(c3ccccc3)CC2=O)cc1 (stereo not drawn) | > 100 | – | – |
| O=C1CC(c2c(F)cccc2Cl)CC(O)=C1Sc1ccccc1Cl (stereo not drawn) | 3.7 | 5.3 | – |
| CCC(C)CSC1=C(O)CC(c2ccccc2)CC1=O (stereo not drawn) | > 100 | – | – |
| O=C1CC(c2ccccc2)CC(O)=C1Sc1ccccc1 (stereo not drawn) | > 100 | – | – |
| CC(C)SC1=C(O)CC(c2ccccc2)CC1=O (stereo not drawn) | > 100 | – | – |
| CC(=O)Nc1ccc(SC2=C(O)CC(c3ccccc3)CC2=O)cc1 (stereo not drawn) | > 100 | – | – |
| COC(=O)CSC1=C(O)CC(c2ccccc2)CC1=O (stereo not drawn) | > 100 | – | – |
| O=C1CC(c2ccccc2)CC(O)=C1SCc1ccc(Cl)cc1Cl (stereo not drawn) | > 100 | – | – |
| O=C1CC(c2ccccc2)CC(O)=C1SCc1ccccc1 (stereo not drawn) | > 100 | – | – |
| Cc1ccc(SC2=C(O)CC(c3ccccc3)CC2=O)c(C)c1 (stereo not drawn) | > 100 | – | – |
| O=C1CC(c2ccccc2)CC(O)=C1Sc1cccc(F)c1 (stereo not drawn) | > 100 | – | – |
| Nc1ccc2nc(SC3=C(O)CC(c4ccccc4)CC3=O)[nH]c2c1 (stereo not drawn) | > 100 | – | – |
| N#Cc1ccccc1SC1=C(O)CC(c2ccccc2Cl)CC1=O (stereo not drawn) | 3.1 | 6.6 | – |

| SMILES | IC50 [1] [µM] | IC50 [2] [µM] | Kd [3] [µM] |
| --- | --- | --- | --- |
| O=C1CC(c2ccccc2)CC(O)=C1Sc1nc2ccccc2s1 (stereo not drawn) | > 100 | – | – |
| O=C1CC(c2ccccc2)CC(O)=C1Sc1cc(Cl)ccc1Cl (stereo not drawn) | 12 | – | – |
| Cc1cccc(C)c1C1CC(=O)C(Sc2ccccc2Cl)=C(O)C1 (stereo not drawn) | 2.3 | 1.9 | – |
| O=C1CC(c2ccccc2)CC(O)=C1Sc1ccc(O)cc1 (stereo not drawn) | > 100 | – | – |
| CSc1nnc(SC2=C(O)CC(c3ccccc3)CC2=O)s1 (stereo not drawn) | > 100 | – | – |
| O=C1CC(c2ccccc2)CC(O)=C1Sc1cccc(OC(F)(F)F)c1 (stereo not drawn) | > 100 | – | – |
| O=C1CC(c2ccccc2)CC(O)=C1Sc1nncs1 (stereo not drawn) | > 100 | – | – |
| O=C1CC(c2ccccc2)CC(O)=C1Sc1ccccc1C(=O)O (stereo not drawn) | > 100 | – | – |
| Cc1ccccc1CSC1=C(O)CC(c2ccccc2)CC1=O (stereo not drawn) | > 100 | – | – |
| O=C1CC(c2c(F)cccc2F)CC(O)=C1Sc1ccccc1Cl (stereo not drawn) | 7.4 | 1.3 | – |
| Cc1cccc(C)c1SC1=C(O)CC(c2ccccc2)CC1=O (stereo not drawn) | > 100 | – | – |
| COc1ccc(CSC2=C(O)CC(c3ccccc3)CC2=O)cc1 (stereo not drawn) | > 100 | – | – |
| O=C1CC(c2ccccc2)CC(O)=C1Sc1ccccc1F (stereo not drawn) | 53 | – | – |
| N#Cc1ccccc1SC1=C(O)CC(c2ccc(Cl)cc2)CC1=O (stereo not drawn) | 17 | > 10 | – |
| NS(=O)(=O)c1cccc(SC2=C(O)CC(c3ccccc3)CC2=O)c1 (stereo not drawn) | > 100 | – | – |
| O=C1CC(c2ccccc2)CC(O)=C1Sc1cccc(Cl)c1F (stereo not drawn) | > 100 | – | – |
| Cc1cccc(C)c1C1CC(=O)C(Sc2ccccc2C#N)=C(O)C1 (stereo not drawn) | 2.1 | 7.8 | – |
| Cc1ccnc(SC2=C(O)CC(c3ccccc3)CC2=O)n1 (stereo not drawn) | > 100 | – | – |
| Cc1cc(C)nc(SC2=C(O)CC(c3ccccc3)CC2=O)n1 (stereo not drawn) | > 100 | – | – |
| O=C1CC(c2ccccc2)CC(O)=C1Sc1cccc(Cl)c1Cl (stereo not drawn) | 63 | – | – |
| Nc1ccc(SC2=C(O)CC(c3ccccc3)CC2=O)cc1 (stereo not drawn) | > 100 | – | – |
| O=C1CC(c2ccccc2)CC(O)=C1Sc1ccccc1O (stereo not drawn) | > 100 | – | – |
| N#Cc1ccccc1SC1=C(O)CC(c2c(Br)cccc2Br)CC1=O (stereo not drawn) | 0.18 | – | – |
| Nc1cc(N)nc(SC2=C(O)CC(c3ccccc3)CC2=O)n1 (stereo not drawn) | > 100 | – | – |
| O=C1CC(c2ccccc2)CC(O)=C1Sc1ccc(F)cc1F (stereo not drawn) | > 100 | – | – |
| CCOC(=O)c1cnc(SC2=C(O)CC(c3ccccc3)CC2=O)nc1N (stereo not drawn) | > 100 | – | – |

| SMILES | IC50 [1] [µM] | IC50 [2] [µM] | Kd [3] [µM] |
| --- | --- | --- | --- |
| CS(=O)(=O)c1ccccc1SC1=C(O)CC(c2ccccc2)CC1=O (stereo not drawn) | > 100 | – | – |
| O=C1CC(c2ccccc2)CC(O)=C1Sc1ccc(C(=O)O)cc1 (stereo not drawn) | > 100 | – | – |
| O=C1CC(c2ccccc2)CC(O)=C1Sc1ccc2ccccc2c1 (stereo not drawn) | > 100 | – | – |
| O=C1CC(c2ccccc2)CC(O)=C1Sc1nc2ccccc2o1 (stereo not drawn) | > 100 | – | – |
| COc1ccccc1SC1=C(O)CC(c2ccccc2)CC1=O (stereo not drawn) | > 100 | – | – |
| COc1ccc(OC)c(SC2=C(O)CC(c3ccccc3)CC2=O)c1 (stereo not drawn) | > 100 | – | – |
| COC(=O)CCSC1=C(O)CC(c2ccccc2)CC1=O (stereo not drawn) | > 100 | – | – |
| COc1cccc(SC2=C(O)CC(c3ccccc3)CC2=O)c1 (stereo not drawn) | > 100 | – | – |
| O=C1CC(c2ccccc2)CC(O)=C1Sc1ccccc1Br (stereo not drawn) | 53 | – | – |
| Cc1cccc(Cl)c1SC1=C(O)CC(c2ccccc2)CC1=O (stereo not drawn) | > 100 | – | – |
| Cc1cccc(CSC2=C(O)CC(c3ccccc3)CC2=O)c1 (stereo not drawn) | > 100 | – | – |
| O=C1CC(c2ccccc2)CC(O)=C1Sc1ccc(F)cc1 (stereo not drawn) | > 100 | – | – |
| O=C1CC(c2ccccc2)CC(O)=C1SCc1ccc(F)cc1 (stereo not drawn) | > 100 | – | – |
| Cc1ccc(CSC2=C(O)CC(c3ccccc3)CC2=O)cc1 (stereo not drawn) | > 100 | – | – |
| Cc1cc(C)c(SC2=C(O)CC(c3ccccc3)CC2=O)nc1C#N (stereo not drawn) | > 100 | – | – |
| N#Cc1ccccc1SC1=C(O)CC(c2c(Cl)cccc2C(F)(F)F)CC1=O (stereo not drawn) | 0.64 | 2.8 | – |
| O=C1CC(c2ccccc2)CC(O)=C1SCCO (stereo not drawn) | > 100 | – | – |
| O=C1CC(c2ccccc2)CC(O)=C1Sc1ncc[nH]1 (stereo not drawn) | > 100 | – | – |
| COc1ccc(SC2=C(O)CC(c3ccccc3)CC2=O)cc1OC (stereo not drawn) | > 100 | – | – |
| Cc1ccccc1SC1=C(O)CC(c2ccccc2)CC1=O (stereo not drawn) | > 100 | – | – |
| O=C1CC(c2ccccc2)CC(O)=C1Sc1nc2ccc(Cl)cc2[nH]1 (stereo not drawn) | > 100 | – | – |
| O=C1CC(c2ccccc2)CC(O)=C1Sc1ccc(F)cc1Cl (stereo not drawn) | 24 | – | – |
| O=C1CC(c2ccccc2)CC(O)=C1Sc1ncccn1 (stereo not drawn) | > 100 | – | – |
| Cc1nnc(SC2=C(O)CC(c3ccccc3)CC2=O)s1 (stereo not drawn) | > 100 | – | – |
